# Tests used:
# [1] = molecular target: T1, CT775 (LpaT), lysophospholipid acyltransferase (Chlamydia trachomatis, UniProt O84780); assay: NBD-PC formation, TLC, bee venom PLA2 digestion, microsomes; format: biochemical; settings: 1 µM NBD-C16-CoA, 10 µM 1-C16-GPC, pH 7.4, 30 °C; acyl acceptor
# T1 construct: gene CT_775; expressed in E. coli BL21(DE3), membrane fraction (microsomes); cloning reported previously
# T1 sequence (O84780 1-253): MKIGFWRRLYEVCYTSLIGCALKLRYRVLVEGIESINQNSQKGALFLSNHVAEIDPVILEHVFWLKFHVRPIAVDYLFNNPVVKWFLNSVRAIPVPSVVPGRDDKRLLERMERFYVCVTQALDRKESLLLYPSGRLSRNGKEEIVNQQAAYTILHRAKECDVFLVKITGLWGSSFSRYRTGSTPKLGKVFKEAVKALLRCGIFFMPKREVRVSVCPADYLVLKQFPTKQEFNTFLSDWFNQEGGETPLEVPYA
# [2] = molecular target: T2, hACSL6-iso2 (human long-chain acyl-CoA synthetase 6) (Homo sapiens, UniProt Q9UKU0); assay: acyl-CoA / acyl-AMP formation; format: biochemical; settings: with fatty acid and CoASH
# T2 construct: gene ACSL6; hexahistidine fusion, Ni-NTA partially purified, CHAPS lysis
# T2 sequence (Q9UKU0 1-697): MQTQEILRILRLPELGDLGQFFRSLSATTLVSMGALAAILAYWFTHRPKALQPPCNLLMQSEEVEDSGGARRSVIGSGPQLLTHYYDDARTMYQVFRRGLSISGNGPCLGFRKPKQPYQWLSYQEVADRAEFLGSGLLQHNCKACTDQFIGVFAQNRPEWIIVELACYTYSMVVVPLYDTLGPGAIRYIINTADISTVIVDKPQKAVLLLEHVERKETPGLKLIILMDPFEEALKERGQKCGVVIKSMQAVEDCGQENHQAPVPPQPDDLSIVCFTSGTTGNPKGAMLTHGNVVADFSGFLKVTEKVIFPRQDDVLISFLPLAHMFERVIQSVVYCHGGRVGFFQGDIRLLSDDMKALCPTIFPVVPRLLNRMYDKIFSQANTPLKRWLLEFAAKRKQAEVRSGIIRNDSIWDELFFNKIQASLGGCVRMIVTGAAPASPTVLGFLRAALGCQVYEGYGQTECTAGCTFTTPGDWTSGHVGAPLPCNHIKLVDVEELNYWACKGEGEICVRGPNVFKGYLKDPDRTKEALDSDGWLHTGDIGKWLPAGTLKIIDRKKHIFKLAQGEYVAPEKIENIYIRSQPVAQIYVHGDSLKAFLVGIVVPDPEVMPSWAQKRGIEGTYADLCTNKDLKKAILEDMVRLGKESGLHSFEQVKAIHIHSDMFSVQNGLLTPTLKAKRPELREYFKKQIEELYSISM
# [3] = molecular target: T3, human LPCAT1 (hLPCAT1) (Homo sapiens, UniProt Q8NF37); assay: competition with NBD-C16-CoA acylation of 1-C16-GPC, TLC fluorescence, microsomes; format: biochemical; settings: 0.5 µM NBD-C16-CoA, 20 µM 1-C16-GPC, 0.25-1.0 µM competitor, 30 °C; competing acyl donor
# T3 construct: expressed in E. coli BL21(DE3), membrane fraction; cloning reported previously
# T3 sequence (Q8NF37 1-534): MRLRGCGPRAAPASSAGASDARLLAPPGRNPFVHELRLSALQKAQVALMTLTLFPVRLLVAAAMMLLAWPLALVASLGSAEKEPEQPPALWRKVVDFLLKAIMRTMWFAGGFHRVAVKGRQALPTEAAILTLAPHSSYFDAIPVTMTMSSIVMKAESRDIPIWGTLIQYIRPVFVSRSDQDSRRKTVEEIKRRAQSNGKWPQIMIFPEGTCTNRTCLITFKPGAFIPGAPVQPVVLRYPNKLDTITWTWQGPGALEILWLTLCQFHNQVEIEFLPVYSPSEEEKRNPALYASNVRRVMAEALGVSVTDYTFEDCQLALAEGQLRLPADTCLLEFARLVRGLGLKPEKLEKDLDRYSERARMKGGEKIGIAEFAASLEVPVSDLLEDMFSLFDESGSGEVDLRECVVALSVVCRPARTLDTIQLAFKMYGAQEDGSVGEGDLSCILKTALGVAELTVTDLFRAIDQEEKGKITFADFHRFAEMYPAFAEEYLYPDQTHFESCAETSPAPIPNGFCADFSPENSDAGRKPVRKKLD
# [4] = molecular target: T2, hACSL6-iso2 (human long-chain acyl-CoA synthetase 6); assay: competition with […]C18:1-CoA formation; format: biochemical; settings: 1 µM [14C]C18:1-OH, ATP, CoASH, 0.15 µM enzyme, 30 °C; competing substrate
# [5] = molecular target: T4, CT699 (PsdD), PS-decarboxylase (Chlamydia trachomatis, UniProt P0CD79); assay: conversion of NBD-PS to NBD-PE, TLC fluorescence, E. coli lysate vs vector control; format: cell-based; settings: 2 µM NBD-PS, Tris pH 7.4, 37 °C; labelled compound
# T4 construct: gene psd; full-length, pET28a, expressed in E. coli BL21(DE3), lysate
# T4 sequence (P0CD79 1-259): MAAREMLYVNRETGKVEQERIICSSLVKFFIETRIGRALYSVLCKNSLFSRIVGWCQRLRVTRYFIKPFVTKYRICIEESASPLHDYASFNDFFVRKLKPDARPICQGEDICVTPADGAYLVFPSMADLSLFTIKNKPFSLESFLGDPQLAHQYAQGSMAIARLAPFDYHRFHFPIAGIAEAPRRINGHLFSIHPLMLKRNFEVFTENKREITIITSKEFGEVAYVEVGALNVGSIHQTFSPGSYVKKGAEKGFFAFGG
# T4 sequence (P0CD79 260-301): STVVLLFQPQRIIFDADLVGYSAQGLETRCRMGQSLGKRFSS
# [6] = molecular target: T5, AasC (CT776), Chlamydia acyl-ACP synthase (Chlamydia trachomatis, UniProt O84781); assay: […]-phospholipid formation from […]-palmitate in E. coli lysate, TLC; format: biochemical; settings: 5 µM [14C]C16-OH, 10 mM ATP, 20 mM MgCl2, pH 7.4, 30 °C; E. coli acyl carrier and acyltransferase in lysate
# T5 construct: gene aas; full-length, pET28a, expressed in E. coli BL21(DE3), crude lysate
# T5 sequence (O84781 1-537): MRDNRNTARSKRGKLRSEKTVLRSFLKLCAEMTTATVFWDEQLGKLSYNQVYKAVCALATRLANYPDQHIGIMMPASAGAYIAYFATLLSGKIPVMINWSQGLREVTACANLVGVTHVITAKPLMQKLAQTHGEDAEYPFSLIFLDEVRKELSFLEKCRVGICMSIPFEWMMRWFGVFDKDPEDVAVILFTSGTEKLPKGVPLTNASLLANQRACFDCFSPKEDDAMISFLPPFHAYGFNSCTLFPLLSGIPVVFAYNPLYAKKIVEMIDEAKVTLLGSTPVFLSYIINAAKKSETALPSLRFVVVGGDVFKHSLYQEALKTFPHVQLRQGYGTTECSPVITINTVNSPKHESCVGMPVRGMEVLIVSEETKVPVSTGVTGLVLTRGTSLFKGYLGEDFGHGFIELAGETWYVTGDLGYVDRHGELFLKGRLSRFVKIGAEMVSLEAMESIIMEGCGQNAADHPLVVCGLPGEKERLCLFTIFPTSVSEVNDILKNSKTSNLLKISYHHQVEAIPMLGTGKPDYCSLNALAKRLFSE
# [7] = molecular target: T5, AasC (CT776), Chlamydia acyl-ACP synthase; assay: as above; format: biochemical; settings: 5 µM [14C]C16-OH, 10 mM ATP, 20 mM MgCl2, pH 7.4, 30 °C; E. coli acyl carrier and acyltransferase in lysate; remark: listed apart in the source
compound,measurement,setting,value
"CCCCCCCCCCCCCCCC(=O)OC[C@@H](O)COP(=O)([O-])OCC[N+](C)(C)C [1-C16-sn-glycerol-3-P-choline, 1-palmitoyl-2-hydroxy-sn-glycero-3-phosphocholine]","NBD-PC formation, TLC, bee venom PLA2 digestion, microsomes",[1],NBD-acyl group had been transferred by CT775 to the sn2 position of the 1-C16-GPC isomer
Nc1ncnc2c1ncn2[C@@H]1O[C@H](COP(=O)(O)OP(=O)(O)OP(=O)(O)O)[C@@H](O)[C@H]1O [ATP],acyl-CoA / acyl-AMP formation,[2],"In the presence of both ATP and CoASH, acyl-CoA is formed from fatty acids"
CCCCCCCC/C=C\CCCCCCCC(=O)SCCNC(=O)CCNC(=O)[C@H](O)C(C)(C)COP(=O)(O)OP(=O)(O)OC[C@H]1O[C@@H](n2cnc3c(N)ncnc32)[C@H](O)[C@@H]1OP(=O)(O)O [C18:1-CoA],% of activity without competitor,[3],MeC18-CoA was a stronger competitor than C18:1-CoA
CC(C)CCCCCCCCCC(=O)O [MeC12-OH],competition at 10 μM,[4],The shorter chain MeC12-OH also competed but not as efficiently as MeC18-OH
CC(C)CCCCCCCCCCCCCCCC(=O)SCCNC(=O)CCNC(=O)[C@H](O)C(C)(C)COP(=O)(O)OP(=O)(O)OC[C@H]1O[C@@H](n2cnc3c(N)ncnc32)[C@H](O)[C@@H]1OP(=O)(O)O [MeC18-CoA],% of activity without competitor,[3],NBD-C16-CoA to 1-acyl-GPC by hLPCAT1 was strongly reduced in the presence of MeC18-CoA
CC(C)CCCCCCCCCCCCCCCC(=O)O [MeC18-OH],competition at 10 μM,[4],this long-chain odd fatty acid was as good a substrate for hACSL6 as C18:1-OH
"CCCCCCCCCCCCCCCC(=O)OC[C@H](COP(=O)(O)OC[C@H](N)C(=O)O)OC(=O)CCCCCNc1ccc([N+](=O)[O-])c2nonc12 [NBD-PS, 1-palmitoyl-2-(6-[(7-nitro-2-1,3-benzoxadiazol-4-yl)amino]hexanoyl)-sn-glycero-3-phosphoserine]","conversion of NBD-PS to NBD-PE, TLC fluorescence, E. coli lysate vs vector contr",[5],CT699 was active and able to convert fluorescent NBD-PS into NBD-PE
CN(CCOc1ccc(CC2SC(=O)NC2=O)cc1)c1ccccn1 (stereo not drawn) [rosiglitazone G],% inhibition at 100 μM,[6],both drugs had a significant inhibitory effect on FA incorporation in the presence of the AasC
CCC/C=C/C/C=C/C=C/C=N/NN=O [triacsin C],% inhibition at 5 μM,[7],both drugs had a significant inhibitory effect on FA incorporation in the presence of the AasC

# — article PMC5693948, “Phosphatidylserine decarboxylase CT699, lysophospholipid acyltransferase CT775, and acyl-ACP synthase CT776 provide membrane lipid diversity to Chlamydia trachomatis” (Scientific Reports, 2017)
